Assay results from patent US11292778B2, “Heterocyclyl polymethine IR chromophores” (The Regents of the University of California, priority 2017, dated 2022).
Several values for one entry are separate records, joined by “and”; a condition that tells them apart may be missing. Equal entries are not always repeated.

Tests used:
Format in all cases: physicochemical
[1] = Stability of Flav7 in acetonitrile in the presence of methanol, ethanol or water (absorption over time, LCMS); conditions: for change of absorption over time: over 4 hours
Method: Concerned about the structure's susceptibility to nucleophilic attack, the stability of Flav7 in the presence of methanol, ethanol, and water was investigated. 3 was dissolved in acetonitrile, and 1-50% water, ethanol, or methanol was introduced. Changes in absorption spectra over time were monitored. […] Further evidence that 3 is stable to water include UV/Vis monitoring of the dose-dependent addition of water to 3 in acetonitrile followed by water removal.
(§1) Finally, the photoluminescence of Flav7 was compared to the prominent SWIR polymethine dyes, IR-26 and IR-1061. IR-26 has been widely-employed as a standard for this region, while IR-1061 has recently been the active component of nanomaterials for […] in vivo imaging. Despite numerous studies which rely on these dyes, the reported ΦF for IR-26 have been inconsistent, and the ΦF of IR-1061 has yet to be thoroughly characterized. Consequently, to establish that Flav7 is more emissive than existing SWIR polymethine dyes, each dye's emission was directly compared using a SWIR camera. We prepared solutions of 3, IR-26, and IR-1061 in dichloromethane with identical absorbance at 808 nm, excited with a diffuse 808 nm laser, and imaged their emission over 1000-1500 nm.

[2] = Absolute fluorescence quantum yield using an integrating sphere; conditions: dichloromethane; for ΦF (fluorescence quantum yield): absolute value
Method: Polymethine dyes disclosed herein are characterized with respect to their photophysics including absorption, emission, extinction coefficient, quantum yields, and fluorescence lifetime. All quantum yields values obtained are absolute quantum yields values measured using an integrating sphere. Photostabilities are evaluated by sample irradiation with high powered LEDs. Additionally, solvatochromism, solvent compatibility, and stability are assessed.

[3] = Photobleaching under continuous-wave irradiation at 532 nm; conditions: dichloromethane
Method: Photostabilities of the Flay series were measured under continuous-wave irradiation (532 nm, 0.53 fluence).

[4] = Solvatochromism of Flav7
Source text: This family of flavylium dyes has photophysical qualities that are complementary to commonly used cyanine dyes. However, the premier dye in the series is the Flav7 (3) as few emissive polymethine dyes exist in this region. Thus, we thoroughly investigated its stability. First, we explored the solvatochromism of Flav7. […] However, in polar solvents, spectral broadening and accentuation of a high-energy shoulder were observed. This behavior is consistent with SWIR polymethine dyes that experience ground state symmetry breaking due to stabilization of an asymmetric electronic structure.

[5] = Comparative emission imaging with a SWIR InGaAs camera, 808 nm excitation
Source text: as §1
Spatially dispersed 808 nm illumination was used to image 1 ml samples in 2.5 mL cuvettes of the SWIR dyes alongside a DCM blank. Each dye was compared at the same position to ensure consistent camera illumination. SWIR images were collected on an InGaAs camera (Princeton Instruments, NIRvana 640) with a 1000 nm long-pass filter. The camera was cooled to −80° C., the analog to digital (AD) conversion rate set to 2 MHz, the gain set to high, and different exposure times used to achieve sufficient signal and/or frame rates. All images were background- and blemish-corrected within the LightField imaging software. […]

[6] = Emission spectra of the dyes in DCM; conditions: dichloromethane, dyes 1, 3-6 and reference dyes
Source text: (§2) The absorbance spectra in FIG. 2 and FIG. 5 were obtained in DCM on a JASCO V-770 UV-Visible/[…] spectrophotometer with a 2000 nm/min or 4000 nm/min scan rate. Plotted are the baseline corrected and normalized data. The emission spectra in FIG. 2 were taken in DCM on either a Horiba Instruments PTI QuantaMaster Series fluorometer (6), a Fluoromax-3 spectrofluorometer (1, 3-5), or home-built InGaAs array detector (Princeton Instruments). For 6 the following parameters were used: ex. 610 nm, emission collected from 620-900 nm, slits 5 nm, step size 1 nm, integration time 1 s. Plotted is the DCM corrected, baseline corrected, normalized data. For 1, and 3-5, the following parameters were used: slits 5 nm, step size 1 nm, integration time, 0.25 s. Excitation values and emission collection were as follows: 1 (ex. 460, collection 470-800 nm), 5 (ex. 675 nm, collection 685-950 nm), 4 (ex. 840 nm, emission 850-1100 nm), 3 (ex. 730 nm, emission 950-1400). Plotted are the baseline corrected, normalized data. The emission spectra in FIG. 5 were taken in dichloromethane on a Horiba Instruments QuantaMaster Series fluorometer with excitation slits: 15 nm, emission slits: 30 nm, step size: 1 nm, integration time: 0.1 s and excitation wavelengths as indicated.

[7] = Absorbance spectra of the dyes in DCM (UV-Visible/NIR spectrophotometer)
Source text: as §2

CN(C)c1ccc2c(c1)OC(c1ccccc1)=C/C2=C\C=C1/CCCC(/C=C/c2cc(-c3ccccc3)[o+]c3cc(N(C)C)ccc23)=C1Cl.[O-][Cl+3]([O-])([O-])[O-] [Dye 3, 4-((E)-2-((E)-2-chloro-3-(2-((E)-7-(dimethylamino)-2-phenyl-4H-chromen-4-ylidene)ethylidene)cyclohex-1-en-1-yl)vinyl)-7-(dimethylamino)-2-phenylchromenylium perchlorate]
degradation by LCMS over time ([1]; 0.1 mg/mL in acetonitrile with 10% water): no appreciable degradation
change of λmax,abs at 1013 nm ([1]; acetonitrile with 1% methanol): rapid loss
change of absorption over time ([1]; acetonitrile with 10% ethanol): slight loss
change of absorption over time ([1]; acetonitrile with 10% water): no significant change
absorbance at 1013 nm after water addition and water removal ([1]; acetonitrile, dose-dependent water addition followed by water removal, UV/Vis): restored upon water removal
QE, εΦF (quantum efficiency) [2]: 1200 M⁻¹ cm⁻¹
ΦF (fluorescence quantum yield) [2]: 0.53±0.03% and 0.53%
ΦF (fluorescence quantum yield) ([2]; listed as Flav7): 0.53% and 0.53±0.3%
QE, εΦF (quantum efficiency) ([2]; listed as Flav7): 1,200 M^−1cm^−1
relative rate, krel (photobleaching) ([3]; 532 nm irradiation): 40. ± 6.
raw rate, k (photobleaching) ([3]; continuous-wave irradiation 532 nm, 0.53 fluence): 28. ± 3. s^−1 × 10^−3
ε at 532 nm [3]: 1.4 ± 0.2 M^−1cm^−1 × 10^4
variation of λmax,abs between solvents ([4]; dichloromethane, dimethyl sulfoxide, acetonitrile, tetrahydrofuran, acetone): minimal variation
behaviour in methanol ([4]; methanol as solvent): immediate color change
brightness relative to IR-26 [5]: 13 times
emission intensity compared with the other SWIR dyes ([5]; dichloromethane, identical absorbance at 808 nm, emission 1000-1500 nm): brightest of the three dyes
emission (DCM) λmax [6]: 1045 nm
emission (DCM) λmax ([6]; listed as Flav7): 1061 nm and 1045 nm
absorption red shift past IR-27 [7]: ~40 nm
absorption (DCM) λmax ([7]; dichloromethane, in example paragraphs the longest-wavelength absorbance peak): 1026 nm
